# Experimental data reported in patent US7294189B2, “Wax emulsion preservative compositions and method of manufacture” (Hexion Specialty Chemicals, Inc., priority 2002, dated 2007).
# “Also recorded” adds a separate entry of the source.
# Assays:
# [1] = test system: biological growth; assay: Biological growth on particle board coupons (urea-formaldehyde binder) made with test emulsions, placed in various environments; conditions: emulsions with 1% or 2% thiabendazole by weight of the wax; emulsion 0.4% solids by weight of furnish; soaked and non-soaked coupons; constant humidity, rooftop, warehouse, laboratory; after six weeks (control coupons showed growth after first week)
# Procedure: In other tests, test emulsions as described above was used to prepare sample particle board coupons comprising a urea-formaldehyde binder. Some test emulsions contained 1% thiabendazole, others 2%, by weight of the wax in the emulsions. The emulsion was added to the furnish from which the coupons were formed in an amount of 0.4% solids, by weight of the furnish. Some of the coupons were soaked in water for twenty-four hours before testing. For the test, various soaked and non-soaked coupons were placed in various environments including constant humidity conditions (72° F. (22.2° C.), 72% relative humidity (RH)), outdoor rooftop environmental conditions (exposed to air but shielded from direct impingement by precipitation); and indoors in an uncontrolled warehouse and in a laboratory environment, beside a water bath. Control coupons prepared and treated similarly were also place in these environments.
# [2] = test system: mold cultures; assay: ASTM D3273 four week mold resistance test of gypsum product made with wax emulsion containing thiabendazole; conditions: 0.2% thiabendazole post-added to wax emulsion; closed chamber with potting soil and mold cultures, about 90° F., relative humidity 95% to 98%; first weeks of the test
# Procedure: A wax emulsion formulation was prepared with the following components: G Wax (a paraffin wax) 33%, Montan wax 3.3%, alkyl phenol 0.5%, Disal 0.5%, potassium hydroxide 0.75%, ammonium hepta molybdonate 0.01%, starch 0.09%, polyfon H (lignosulfonic acid, sodium salt) 0.5%, water 61.35%. To this wax emulsion was post-added 0.2% thiabendazole, commercially available from Supreme Chemical of Cumming, Ga. under the trade designation MC-2. The wax emulsion was used to prepare a gypsum product. The resulting gypsum product was tested according to ASTM D3273. During this four week test, a sample of the subject material, such as a gypsum board, is placed in a closed chamber along with potting soil and mold cultures at a constant temperature of about 90° F. (32.2° C.) and relative humidity of 95% to 98%. The condition of the test sample is monitored weekly to determine the extent, if any, of mold growth.
compound,measurement,setting,value
"c1ccc2[nH]c(-c3cscn3)nc2c1 [thiabendazole, 2-(4′-thiazolyl) benzimidazole]",visible biological growth on particle board coupons,[1],none of the sample coupons made with thiabendazole had any visible growth
same,biological (mold) growth on gypsum product,[2],effective in inhibiting the growth of biological agents on gypsum board; also recorded: no biological growth
